Test results: ChEMBL document CHEMBL4732062, “Protease activated receptor 4 (PAR4) antagonists: Research progress on small molecules in the field of antiplatelet agents” (Eur J Med Chem, 2021)

Columns and labels:
[1] = Inhibition of arachidonic acid-induced platelet aggregation in human platelet-rich plasma incubated for 1 min followed by arachidonic acid addition; format: functional, cell-based
Rhesus monkey [2] = assay: Antithrombotic activity in monkey assessed as increase in mesenteric artery bleeding time at 0.1 mg/kg administered as single dose cotreated with aspirin measured at 2 hrs post dose relative to control; format: functional, Macaca mulatta
Rhesus monkey [3] = assay: Antithrombotic activity in monkey model of electrolytic carotid artery thrombosis assessed as reduction in thrombus weight at 0.05 mg/kg administered as single dose measured at 2 hrs post dose; format: functional, Macaca mulatta; design: scale not given: the % may be the effect or the level left
[4] = molecular target: T1, Proteinase-activated receptor 4 (Homo sapiens, UniProt Q96RI0); assay: Inhibition of human PAR4 expressed in HEK293 cells assessed as Ala-(L-4-F-Phe)-Pro-Gly-Trp-Leu-Val-Lys-Asn-Gly-induced inhibition of calcium mobilization preincubated for 30 mins followed by Ala-(L-4-F-Phe)-Pro-Gly-Trp-Leu-Val-Lys-Asn-Gly stimulation by FLIPR method; format: functional, cell-based
T1 sequence (Q96RI0 whole entry): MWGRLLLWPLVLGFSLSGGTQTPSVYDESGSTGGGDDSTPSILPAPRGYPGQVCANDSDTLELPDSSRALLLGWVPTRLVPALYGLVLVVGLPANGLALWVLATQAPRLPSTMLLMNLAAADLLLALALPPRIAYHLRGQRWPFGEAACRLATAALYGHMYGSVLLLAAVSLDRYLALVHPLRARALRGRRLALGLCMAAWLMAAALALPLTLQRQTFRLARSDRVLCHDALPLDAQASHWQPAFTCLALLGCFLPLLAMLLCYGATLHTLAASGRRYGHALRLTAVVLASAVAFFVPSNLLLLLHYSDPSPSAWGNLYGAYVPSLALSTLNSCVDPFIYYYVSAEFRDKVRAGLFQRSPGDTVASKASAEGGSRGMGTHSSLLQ

Rhesus monkey [5] = assay: Antithrombotic activity in monkey assessed as increase in mesenteric artery bleeding time at 0.5 mg/kg administered as single dose cotreated with aspirin measured at 2 hrs post dose relative to control; format: functional, Macaca mulatta
Rhesus monkey [6] = assay: Antithrombotic activity in monkey assessed as increase in mesenteric artery bleeding time at 0.05 to 0.5 mg/kg administered as single dose measured at 2 hrs post dose relative to control; format: functional, Macaca mulatta; conditions: dose 0.05-0.5 mg/kg
Rhesus monkey [7] = assay: Antithrombotic activity in monkey model of electrolytic carotid artery thrombosis assessed as reduction in thrombus weight at 0.1 mg/kg administered as single dose measured at 2 hrs post dose; format: functional, Macaca mulatta; design: scale not given: the % may be the effect or the level left
Rhesus monkey [8] = assay: Antithrombotic activity in monkey model of electrolytic carotid artery thrombosis assessed as reduction in thrombus weight at 0.5 mg/kg administered as single dose measured at 2 hrs post dose relative to control; format: functional, Macaca mulatta; design: scale not given: the % may be the effect or the level left
[9] = Inhibition of thrombin-induced platelet aggregation in human platelet-rich plasma incubated for 1 min followed by thrombin addition; format: functional
[10] = Inhibition of PAF-induced platelet aggregation in human platelet-rich plasma incubated for 1 min followed by PAF addition; format: functional
[11] = Antagonist activity at PAR4 in cynomolgus monkey whole blood assessed as inhibition of Ala-(L-4-F-Phe)-Pro-Gly-Trp-Leu-Val-Lys-Asn-Gly-induced platelet aggregation preincubated for 10 mins followed by Ala-(L-4-F-Phe)-Pro-Gly-Trp-Leu-Val-Lys-Asn-Gly stimulation; format: tissue-based; conditions: Macaca fascicularis
Cynomolgus monkey [12] = assay: Antithrombotic activity in cynomolgus monkey model of electrolytic carotid artery thrombosis assessed as reduction in thrombus weight at 0.5 mg/kg, PO administered once daily for 3 days measured at 2 hrs post last dose relative to control; format: functional, Macaca fascicularis; design: scale not given: the % may be the effect or the level left; conditions: time 3 day
[13] = Inhibition of collagen-induced platelet aggregation in human platelet-rich plasma incubated for 1 min followed by collagen addition; format: functional
Rhesus monkey [14] = assay: Antithrombotic activity in monkey model of electrolytic carotid artery thrombosis assessed as reduction in thrombus weight at 0.5 mg/kg administered as single dose cotreated with aspirin measured at 2 hrs post dose relative to control; format: functional, Macaca mulatta; design: scale not given: the % may be the effect or the level left
Rhesus monkey [15] = assay: Antithrombotic activity in monkey model of electrolytic carotid artery thrombosis assessed as reduction in thrombus weight at 0.1 mg/kg administered as single dose cotreated with aspirin measured at 2 hrs post dose relative to control; format: functional, Macaca mulatta; design: scale not given: the % may be the effect or the level left
Cynomolgus monkey [16] = assay: Antithrombotic activity in cynomolgus monkey model of electrolytic carotid artery thrombosis assessed as reduction in thrombus weight at 4 mg/kg/hr, iv administered as single dose measured at 2 hrs post dose relative to control; format: functional, Macaca fascicularis; design: scale not given: the % may be the effect or the level left
Rhesus monkey [17] = assay: Antithrombotic activity in monkey assessed as increase in mesenteric artery bleeding time at 4 mg/kg/hr, iv administered as single dose measured at 2 hrs post dose relative to control; format: functional, Macaca mulatta
Cynomolgus monkey [18] = assay: Antithrombotic activity in cynomolgus monkey model of electrolytic carotid artery thrombosis assessed as increase in provoked kidney bleeding time at 1 mg/kg, PO administered once daily for 3 days measured at 2 hrs post last dose; format: functional, Macaca fascicularis; conditions: time 3 day
Cynomolgus monkey [19] = assay: Antithrombotic activity in cynomolgus monkey model of electrolytic carotid artery thrombosis assessed as increase in mesenteric bleeding time at 1 mg/kg, PO administered once daily for 3 days measured at 2 hrs post last dose; format: functional, Macaca fascicularis; conditions: time 3 day

With `CCOC(=O)c1ccc(-c2nn(Cc3ccccc3)c3ccccc23)cc1` the IC50 [1] was 185 µM.
In the case of `COc1cc(OCc2nc(-c3ccc(C(=O)N(C)C)cc3)sc2C)c2cc(-c3cn4nc(OC)sc4n3)oc2c1`, the “fold change (FC)” value (Rhesus monkey [2]) is reported as 2.6, the Activity (Rhesus monkey [3]) is reported as 36% and the IC50 [4] is reported as 0.00045 µM. For the same compound, the “fold change (FC)” value (Rhesus monkey [5]) was 3, the “fold change (FC)” value (Rhesus monkey [6]) was “<=1.2” and the Activity (Rhesus monkey [7]) was 63%. It also gave an Activity (Rhesus monkey [8]) of 88%.
In the case of `COC(=O)c1ccc(-c2nn(-c3ccccc3)c3ccccc23)o1`, the IC50 [9] is reported as greater than 270 µM and the IC50 [10] is reported as greater than 270 µM.
Work on `COc1cc(OCc2nc(N3CCOCC3)sc2C)c2cc(-c3cn4nc(OC)sc4n3)oc2c1` yielded an IC50 [11] of 0.0021 µM and an Activity (Cynomolgus monkey [12]) of 50%.
`COc1cnc2c(-c3nc4cc(F)c(O[C@@H]5CCC(C)(C)[C@@H]5OC(=O)Nc5ccnc(C)n5)cc4s3)cc(C)cc2n1` showed an IC50 [4] of 0.0024 µM.
`O=C(O)c1ccc(-c2nn(Cc3ccccc3)c3ccccc23)cc1` showed an IC50 [9] greater than 270 µM, an IC50 [1] of 156 µM and an IC50 [13] of 148 µM. For the same compound, the IC50 [10] was 235 µM.
For `COC(=O)c1ccc(-c2nn(Cc3ccccc3)c3cc(C)ccc23)o1`, the IC50 [9] was 126 µM, the IC50 [1] was 32.4 µM and the IC50 [13] was 59.3 µM. It also gave an IC50 [10] of 76.3 µM.
Compound `CC(=O)Oc1ccccc1C(=O)O` [ASPIRIN] has an Activity (Rhesus monkey [14]) of 89%, an Activity (Rhesus monkey [15]) of 50% and an Activity (Cynomolgus monkey [16]) of 12%. For the same compound, the “fold change (FC)” value (Rhesus monkey [17]) was 2.2.
With `COC(=O)[C@H](c1ccccc1Cl)N1CCc2sccc2C1` [CLOPIDOGREL] the “fold change (FC)” value (Cynomolgus monkey [18]) was greater than 10 and the “fold change (FC)” value (Cynomolgus monkey [19]) was greater than 10.
`CCOC(=O)c1cccc(-c2nn(Cc3ccccc3)c3ccccc23)c1` gave an IC50 [9] greater than 270 µM and an IC50 [10] greater than 270 µM.
For `COC(=O)c1ccc(-c2nn(Cc3ccccc3)c3cc4c(cc23)OCO4)o1`, the IC50 [9] was greater than 270 µM, the IC50 [1] was 92.3 µM and the IC50 [13] was 157 µM. For the same compound, the IC50 [10] was greater than 270 µM.
